ChEMBL document CHEMBL3621169, “Synthesis of tetrazole compounds as a novel type of potential antimicrobial agents and their synergistic effects with clinical drugs and interactions with calf thymus DNA” (Medchemcomm, 2015)
Converted amounts (≈) assume the structure as drawn.

Tested on: Staphylococcus aureus
Experiment: Antibacterial activity against Staphylococcus aureus ATCC 25923 after 24 hrs by micro broth dilution method
Assay type: functional
Settings: ATCC 25923, 24 h

| Structure (SMILES) | MIC [µg/mL] |
| --- | --- |
| COc1ccc(N(CC#N)Cc2ccc(F)cc2F)cc1 | 256 (≈ 888 µM) |
| CCCCCCN(CC#N)c1ccccc1 | 256 (≈ 1180 µM) |
| CCCCCCCCCCN(Cc1nnn[nH]1)c1ccccc1 | 64 (≈ 203 µM) |
| CCCCCCCCCCCCN(CC#N)c1ccccc1 | 256 (≈ 852 µM) |
| N#CCN(Cc1ccc(F)cc1F)c1ccccc1 | 128 (≈ 496 µM) |
| N#CCN(Cc1cccc(F)c1)c1ccccc1 | 64 (≈ 266 µM) |

Tested on: Aspergillus flavus
Experiment: Antifungal activity against Aspergillus flavus after 24 hrs by micro broth dilution method
Assay type: functional
Settings: not given

| Structure (SMILES) | MIC [µg/mL] |
| --- | --- |
| COc1ccc(N(CC#N)Cc2ccc(F)cc2F)cc1 | 128 (≈ 444 µM) |
| CCCCCCN(CC#N)c1ccccc1 | 128 (≈ 592 µM) |
| CCCCCCCCCCN(Cc1nnn[nH]1)c1ccccc1 | 32 (≈ 101 µM) |
| CCCCCCCCCCCCN(CC#N)c1ccccc1 | 128 (≈ 426 µM) |
| N#CCN(Cc1ccc(F)cc1F)c1ccccc1 | 256 (≈ 991 µM) |
| N#CCN(Cc1cccc(F)c1)c1ccccc1 | 256 (≈ 1070 µM) |

Tested on: Candida albicans
Experiment: Antifungal activity against Candida albicans ATCC 90029 after 24 hrs by micro broth dilution method
Assay type: functional
Settings: ATCC 90029, 24 h

| Structure (SMILES) | MIC [µg/mL] |
| --- | --- |
| COc1ccc(N(CC#N)Cc2ccc(F)cc2F)cc1 | 128 (≈ 444 µM) |
| CCCCCCN(CC#N)c1ccccc1 | 256 (≈ 1180 µM) |
| CCCCCCCCCCN(Cc1nnn[nH]1)c1ccccc1 | 32 (≈ 101 µM) |
| CCCCCCCCCCCCN(CC#N)c1ccccc1 | 256 (≈ 852 µM) |
| N#CCN(Cc1ccc(F)cc1F)c1ccccc1 | 128 (≈ 496 µM) |
| N#CCN(Cc1cccc(F)c1)c1ccccc1 | 64 (≈ 266 µM) |

Tested on: Staphylococcus aureus
Experiment: Antibacterial activity against methicillin-resistant Staphylococcus aureus N315 after 24 hrs by micro broth dilution method
Assay type: functional
Settings: N315, 24 h

| Structure (SMILES) | MIC [µg/mL] |
| --- | --- |
| COc1ccc(N(CC#N)Cc2ccc(F)cc2F)cc1 | 256 (≈ 888 µM) |
| CCCCCCN(CC#N)c1ccccc1 | 512 (≈ 2370 µM) |
| CCCCCCCCCCN(Cc1nnn[nH]1)c1ccccc1 | 32 (≈ 101 µM) |
| CCCCCCCCCCCCN(CC#N)c1ccccc1 | 512 (≈ 1700 µM) |
| N#CCN(Cc1ccc(F)cc1F)c1ccccc1 | 256 (≈ 991 µM) |
| N#CCN(Cc1cccc(F)c1)c1ccccc1 | 128 (≈ 533 µM) |

Tested on: not listed separately
Experiment: Ionization constant, pKa of the compound by UV spectroscopy
Assay type: physicochemical
Settings: not given

| Structure (SMILES) | pKa |
| --- | --- |
| CCCCCCCCCCN(Cc1nnn[nH]1)c1ccccc1 | 4.87 |

Tested on: Bacillus sp.
Experiment: Antibacterial activity against Bacillus proteus ATCC 13315 after 24 hrs by micro broth dilution method
Assay type: functional
Settings: Bacillus sp. (in: firmicutes), ATCC 13315, 24 h

| Structure (SMILES) | MIC [µg/mL] |
| --- | --- |
| COc1ccc(N(CC#N)Cc2ccc(F)cc2F)cc1 | 256 (≈ 888 µM) |
| CCCCCCN(CC#N)c1ccccc1 | 256 (≈ 1180 µM) |
| CCCCCCCCCCN(Cc1nnn[nH]1)c1ccccc1 | 64 (≈ 203 µM) |
| CCCCCCCCCCCCN(CC#N)c1ccccc1 | 512 (≈ 1700 µM) |
| N#CCN(Cc1ccc(F)cc1F)c1ccccc1 | 256 (≈ 991 µM) |
| N#CCN(Cc1cccc(F)c1)c1ccccc1 | 128 (≈ 533 µM) |

Tested on: Escherichia coli
Experiment: Antibacterial activity against Escherichia coli DH52 after 24 hrs by micro broth dilution method
Assay type: functional
Settings: DH52, 24 h

| Structure (SMILES) | MIC [µg/mL] |
| --- | --- |
| COc1ccc(N(CC#N)Cc2ccc(F)cc2F)cc1 | 256 (≈ 888 µM) |
| CCCCCCN(CC#N)c1ccccc1 | 128 (≈ 592 µM) |
| CCCCCCCCCCN(Cc1nnn[nH]1)c1ccccc1 | 32 (≈ 101 µM) |
| CCCCCCCCCCCCN(CC#N)c1ccccc1 | 256 (≈ 852 µM) |
| N#CCN(Cc1ccc(F)cc1F)c1ccccc1 | 64 (≈ 248 µM) |
| N#CCN(Cc1cccc(F)c1)c1ccccc1 | 256 (≈ 1070 µM) |

Tested on: Micrococcus luteus
Experiment: Antibacterial activity against Micrococcus luteus ATCC 4698 after 24 hrs by micro broth dilution method
Assay type: functional
Settings: ATCC 4698, 24 h

| Structure (SMILES) | MIC [µg/mL] |
| --- | --- |
| COc1ccc(N(CC#N)Cc2ccc(F)cc2F)cc1 | 128 (≈ 444 µM) |
| CCCCCCN(CC#N)c1ccccc1 | 256 (≈ 1180 µM) |
| CCCCCCCCCCN(Cc1nnn[nH]1)c1ccccc1 | 32 (≈ 101 µM) |
| CCCCCCCCCCCCN(CC#N)c1ccccc1 | 128 (≈ 426 µM) |
| N#CCN(Cc1ccc(F)cc1F)c1ccccc1 | 256 (≈ 991 µM) |
| N#CCN(Cc1cccc(F)c1)c1ccccc1 | 256 (≈ 1070 µM) |

Tested on: Bacillus spizizenii
Experiment: Antibacterial activity against Bacillus subtilis ATCC 6633 after 24 hrs by micro broth dilution method
Assay type: functional
Settings: ATCC 6633, 24 h

| Structure (SMILES) | MIC [µg/mL] |
| --- | --- |
| COc1ccc(N(CC#N)Cc2ccc(F)cc2F)cc1 | 128 (≈ 444 µM) |
| CCCCCCN(CC#N)c1ccccc1 | 256 (≈ 1180 µM) |
| CCCCCCCCCCN(Cc1nnn[nH]1)c1ccccc1 | 32 (≈ 101 µM) |
| CCCCCCCCCCCCN(CC#N)c1ccccc1 | 256 (≈ 852 µM) |
| N#CCN(Cc1ccc(F)cc1F)c1ccccc1 | 256 (≈ 991 µM) |
| N#CCN(Cc1cccc(F)c1)c1ccccc1 | 128 (≈ 533 µM) |

Tested on: Candida
Experiment: Antifungal activity against Candida mycoderma after 24 hrs by micro broth dilution method
Assay type: functional
Settings: not given

| Structure (SMILES) | MIC [µg/mL] |
| --- | --- |
| COc1ccc(N(CC#N)Cc2ccc(F)cc2F)cc1 | 256 (≈ 888 µM) |
| CCCCCCN(CC#N)c1ccccc1 | 256 (≈ 1180 µM) |
| CCCCCCCCCCN(Cc1nnn[nH]1)c1ccccc1 | 32 (≈ 101 µM) |
| CCCCCCCCCCCCN(CC#N)c1ccccc1 | 256 (≈ 852 µM) |
| N#CCN(Cc1ccc(F)cc1F)c1ccccc1 | 256 (≈ 991 µM) |
| N#CCN(Cc1cccc(F)c1)c1ccccc1 | 128 (≈ 533 µM) |

Tested on: Cyberlindnera jadinii
Experiment: Antifungal activity against Candida utilis ATCC 9950 after 24 hrs by micro broth dilution method
Assay type: functional
Settings: Williopsis jadinii, ATCC 9950, 24 h

| Structure (SMILES) | MIC [µg/mL] |
| --- | --- |
| COc1ccc(N(CC#N)Cc2ccc(F)cc2F)cc1 | 128 (≈ 444 µM) |
| CCCCCCN(CC#N)c1ccccc1 | 256 (≈ 1180 µM) |
| CCCCCCCCCCN(Cc1nnn[nH]1)c1ccccc1 | 16 (≈ 50.7 µM) |
| CCCCCCCCCCCCN(CC#N)c1ccccc1 | 256 (≈ 852 µM) |
| N#CCN(Cc1ccc(F)cc1F)c1ccccc1 | 512 (≈ 1980 µM) |
| N#CCN(Cc1cccc(F)c1)c1ccccc1 | 128 (≈ 533 µM) |

Tested on: Shigella dysenteriae
Experiment: Antibacterial activity against Shigella dysenteriae ATCC 51252 after 24 hrs by micro broth dilution method
Assay type: functional
Settings: ATCC 51252, 24 h

| Structure (SMILES) | MIC [µg/mL] |
| --- | --- |
| COc1ccc(N(CC#N)Cc2ccc(F)cc2F)cc1 | 256 (≈ 888 µM) |
| CCCCCCN(CC#N)c1ccccc1 | 512 (≈ 2370 µM) |
| CCCCCCCCCCN(Cc1nnn[nH]1)c1ccccc1 | 64 (≈ 203 µM) |
| CCCCCCCCCCCCN(CC#N)c1ccccc1 | 512 (≈ 1700 µM) |
| N#CCN(Cc1ccc(F)cc1F)c1ccccc1 | 256 (≈ 991 µM) |
| N#CCN(Cc1cccc(F)c1)c1ccccc1 | 128 (≈ 533 µM) |

Tested on: Pseudomonas aeruginosa
Experiment: Antibacterial activity against Pseudomonas aeruginosa ATCC 27853 after 24 hrs by micro broth dilution method
Assay type: functional
Settings: ATCC 27853, 24 h

| Structure (SMILES) | MIC [µg/mL] |
| --- | --- |
| COc1ccc(N(CC#N)Cc2ccc(F)cc2F)cc1 | 128 (≈ 444 µM) |
| CCCCCCN(CC#N)c1ccccc1 | 512 (≈ 2370 µM) |
| CCCCCCCCCCN(Cc1nnn[nH]1)c1ccccc1 | 128 (≈ 406 µM) |
| CCCCCCCCCCCCN(CC#N)c1ccccc1 | 512 (≈ 1700 µM) |
| N#CCN(Cc1ccc(F)cc1F)c1ccccc1 | 128 (≈ 496 µM) |
| N#CCN(Cc1cccc(F)c1)c1ccccc1 | 256 (≈ 1070 µM) |
